From patent US8153589B2, “JNK3 as a target for the treatment of angiogenesis-related diseases” (The University of North Carolina at Chapel Hill, priority 2009, dated 2012) come the findings set out here.

Assay [1] deals with MKP7. Description: Biotin switch assay, MKP7 nitrosylation in BAECs transfected with Flag-MKP7. The assay is classed as cell-based. The note with it: 50 ng/ml SDF-1alpha for 5 minutes. The procedure: Experiments were performed following the methods previously described by Dr. Stamler's laboratory (39). Cell lysates containing Flag or Myc-tagged MKP7 protein were treated with the indicated concentrations of GSNO followed by the addition of 2 volumes of HEN buffer and freshly prepared S-methyl methanethiosulfonate (10% v/v in N,N-dimethylformamide) and SDS (25% v/v) to final concentrations of 0.1 and 2.5%, respectively. Following frequent vortexing at 50° C. for 1 hour, proteins were precipitated with 3 volumes of acetone at −20° C. for 30 min. The proteins were recovered by centrifugation at 5,000×g for 5 min, followed by gentle rinsing of the pellet with 3×1 ml acetone. The pellets were then resuspended in 240 μl of HEN buffer containing 1% SDS. The resuspended protein was precipitated, rinsed and resuspended once more. For labeling, the blocked samples were mixed with 0.1 volume of biotin-HPDP (2.5 mg/ml in Me2SO) and 0.1 volume of HEN (control) or freshly prepared sodium Ascorbic acid in HEN buffer. […] The eluted mixture was then analyzed by SDS-PAGE, followed by immunoblotting with anti-Flag-HRP (1:5000) or antibodies.
As a first step, we investigated whether SDF-1α treatment of BAECs would result in S-nitrosylation of MKP7. […] Next we used JNK3 phosphorylation as a readout for determining whether or not SDF-1α activation of JNK3 could be inhibited by MKP7. […]

For assay [2], the system named is p38. Description: p38 activation, Western blot in BAECs. The following applies: SDF-1α treatment. Format: cell-based, bovine. The procedure: (§1) Cells were harvested in lysis buffer (1% Triton X-100, 50 mM Tris, pH 7.4, 150 mM NaCl, 1 mM Na3VO4 and 0.1% protease inhibitor tablet; Roche) and clarified by centrifugation at 16,000 g. Equal amounts of proteins were incubated with a specific antibody overnight at 4° C. with gentle rotation. Protein A/G Plus-agarose beads (Santa Cruz Biotechnology, Santa Cruz, Calif.) were used to pull down the antibody complexes. Afterward, beads were washed with lysis buffer, and immune complexes were separated by SDS-PAGE. Total cell lysates were separated by SDS-PAGE and transferred to nitrocellulose membranes.
(§2) Mitogen-activated protein kinases (MAPKs), including ERK1/2 and p38, have been reported to enhance angiogenesis (20, 21). However, the role of JNK in angiogenesis remains controversial, with studies showing both positive and negative outcomes of JNK activation. In order to determine which MAPKs are involved in SDF-1α-induced endothelial cell migration, we screened the activities and expression levels of ERK1/2, p38 and JNK following treatment of BAECs with SDF-1α. […] SDF-1α activated both JNK and ERK1/2 in a dose-dependent manner (FIG. 2B). […] Exogenous JNK1, JNK2 and JNK3 proteins containing Flag or GFP-epitopes were transiently expressed in BAECs and their activities were determined via western blotting with a phospho-JNK antibody following SDF-1α treatment. […]
(In general: A western blot detects proteins with antibodies after separation by electrophoresis.)

Assay [3] has as its system ERK1/2. Description: ERK1/2 activation, Western blot in BAECs. Format: cell-based, bovine. The following applies: BAECs, SDF-1α 50 ng/ml. The procedure: as §1, §2

For the substance SDF-1α, the “MKP7 nitrosylation in BAECs” value in assay [1] is on record as “increased”. Further, the p38 activation entry in assay [2] was “not significantly activated”. Further, in assay [3], the ERK1/2 activity result is given as “potently induced”.
